Measured values reported in US7981903B2, “2-[2-{phenylamino}-1H-pyrrolo[2,3-D]pyrimidin-4-yl)amino] benzamide derivatives as IGF-1R inhibitors for the treatment of cancer” (GlaxoSmithKline LLC, priority 2007, dated 2011).

How the values were obtained:
human IGF1R (hIGF1R) = biological target: T1, human IGF1R (hIGF1R) (Homo sapiens, UniProt P08069); test: TR-FRET kinase assay of purified hIGF1R; type: biochemical; details: activated hIGF1R 0.5 nM, 10 μM ATP, values given as pIC50 category, read-out: IGF-1R pIC50 (converted)
T1 construct: containing amino acid residues 957-1367 of human IGF1R; made in house; host or cells: Sf9 cells (baculovirus)
T1 sequence (P08069 957-1367): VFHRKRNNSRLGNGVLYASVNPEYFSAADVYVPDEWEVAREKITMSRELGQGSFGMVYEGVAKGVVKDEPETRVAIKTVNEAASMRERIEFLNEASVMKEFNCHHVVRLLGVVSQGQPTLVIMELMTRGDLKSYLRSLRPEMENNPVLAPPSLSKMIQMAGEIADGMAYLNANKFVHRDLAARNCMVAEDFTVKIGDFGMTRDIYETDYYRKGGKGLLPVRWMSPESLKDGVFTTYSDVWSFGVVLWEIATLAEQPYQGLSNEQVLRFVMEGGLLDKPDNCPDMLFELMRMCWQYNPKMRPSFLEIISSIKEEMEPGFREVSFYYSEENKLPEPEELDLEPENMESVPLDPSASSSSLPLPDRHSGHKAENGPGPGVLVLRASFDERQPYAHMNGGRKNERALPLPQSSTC
Protocol: (§1) Time Resolved Fluorescence Resonance Energy Transfer (TR-FRET) assays were carried out on the exemplified compounds as follows:
(§2) Purity is determined by HPLC. The calculated molecular mass of the peptide is 2216 dalton. Tyrosine phosphorylation by human IGF1R (hIGF1R) or human IR (hIR) occurs as indicated (Y*) in the peptide sequence described. Solid peptide sample is dissolved to approximately 1 mM in DMSO, aliquoted, and stored at −20° C. until use. True peptide concentration is determined by amino acid analysis.
hIGF1R: GST-rTEV-IGF-1R(957-1367) containing amino acid residues 957-1367 of human IGF1R (as annotated by National Center for Biotechnology Information (NCBI) accession number NP_000866) is purified from a baculovirus expression system in Sf9 cells using Glutathione Sepharose 4FF column chromatography followed by Sephadex-200 size exclusion column chromatography. […] Samples, in 25 mM Tris-HCl, 250 mM NaCl, 5% glycerol, 1 mM DTT, pH 7.5, are stored at −80° C. until use.
(§3) hIGF1R: Activation of GST-rTEV-IGF-1R(957-1367) is achieved by a 4 minute incubation of hIGF1R (2.7 μM final) with 2 mM ATP in 50 mM HEPES, 20 mM MgCL2, 0.1 mg/ml BSA, at room temperature. Autophosphorylation is stopped by addition of EDTA (to 100 mM final). Aliquoted samples are flash frozen in liquid nitrogen and stored at −80° C. until use.
(§4) Assays are performed in 384-well (Greiner, Catalog No. 784076) microtiter plates. Reaction buffer (50 mM HEPES buffer, pH 7.5; 10 mM MgCL2; 3 mM DTT; 1 mM CHAPS; 0.1 mg/ml BSA) for peptide phosphorylation (10 μl volume) contained, in final concentrations, 500 nM biotinylated peptide substrate; 10 μM ATP; and purified, activated hIGF1R or hIR (0.5 nM). Compounds, titrated in DMSO, are evaluated at eleven concentrations ranging from 50 μM to 0.2 nM. […] Reactions are incubated for 1 hour at room temperature and are stopped by a 5 μl addition of EDTA (to 33 mM). A further addition of 5 μl detection reagents (for final 7 nM Streptavidin-APC (Perkin Elmer #CR^130-150), 1 nM Europium-labeled anti-phosphotyrosine monoclonal antibody (PerkinElmer #AD0067), added in reaction buffer (without DTT), is required for signal generation. After 30 minutes, signal is read on PerkinElmer Viewlux microplate imager or Wallac Victor fluorometer.
(§5) The data for compound concentration responses were plotted as % Inhibition, calculated with the data reduction formula 100*(1-[(U1-C2)/(C1-C2)]), versus concentration of compound, where • U is the unknown value, • C1 is the average control value obtained for DMSO only, and • C2 is the average control value obtained for reactions stopped with EDTA at • t=0.
(§6) Data were fitted to the curve described by: y=((Vmax*x)/(K+x)) where • Vmax is the upper asymptote and • K is the IC50.

human IR (hIR) = biological target: T2, human IR (hIR) (Homo sapiens, UniProt P06213); test: TR-FRET kinase assay of purified hIR; type: biochemical; details: activated hIR 0.5 nM, 10 μM ATP, values given as pIC50 category
T2 construct: containing amino acid residues 979-1382 of human IR; made in house; host or cells: Sf9 cells (baculovirus), same process as hIGF1R
T2 sequence (P06213 979-1382): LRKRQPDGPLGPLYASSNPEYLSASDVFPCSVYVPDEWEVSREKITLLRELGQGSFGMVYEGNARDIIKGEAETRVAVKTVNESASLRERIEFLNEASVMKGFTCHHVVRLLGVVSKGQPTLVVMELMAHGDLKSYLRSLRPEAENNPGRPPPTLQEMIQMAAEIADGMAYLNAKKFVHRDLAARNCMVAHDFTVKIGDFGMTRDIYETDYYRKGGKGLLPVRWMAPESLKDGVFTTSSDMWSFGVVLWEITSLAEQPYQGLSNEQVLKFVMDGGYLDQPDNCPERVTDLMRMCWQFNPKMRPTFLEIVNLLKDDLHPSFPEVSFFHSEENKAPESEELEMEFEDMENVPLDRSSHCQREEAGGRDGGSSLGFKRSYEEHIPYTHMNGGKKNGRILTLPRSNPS
Protocol: as §1, §2
hIR: GST-rTEV-IR(979-1382) containing amino acid residues 979-1382 of human IR (as annotated by NCBI accession number NP_000199) is expressed and purified by the same process as hIGF1R. […] Samples, in 25 mM Tris-HCl, 250 mM NaCl, 5% glycerol, 1 mM DTT, pH 7.5, are stored at −80° C. until use.
as §3, with “hIR:” for “hIGF1R:”, “5” for “4”, “hIR” for “hIGF1R”, “100” for “50”, “10” for “20”
as §4, §5, §6

ALK = ALK (Homo sapiens, UniProt Q9UM73); test: ALK enzyme assay (HTRF); type: biochemical; details: 0.25 nM ALK, 15.0 μM ATP, values given as pIC50 category
ALK, sequence (Q9UM73 19-1620): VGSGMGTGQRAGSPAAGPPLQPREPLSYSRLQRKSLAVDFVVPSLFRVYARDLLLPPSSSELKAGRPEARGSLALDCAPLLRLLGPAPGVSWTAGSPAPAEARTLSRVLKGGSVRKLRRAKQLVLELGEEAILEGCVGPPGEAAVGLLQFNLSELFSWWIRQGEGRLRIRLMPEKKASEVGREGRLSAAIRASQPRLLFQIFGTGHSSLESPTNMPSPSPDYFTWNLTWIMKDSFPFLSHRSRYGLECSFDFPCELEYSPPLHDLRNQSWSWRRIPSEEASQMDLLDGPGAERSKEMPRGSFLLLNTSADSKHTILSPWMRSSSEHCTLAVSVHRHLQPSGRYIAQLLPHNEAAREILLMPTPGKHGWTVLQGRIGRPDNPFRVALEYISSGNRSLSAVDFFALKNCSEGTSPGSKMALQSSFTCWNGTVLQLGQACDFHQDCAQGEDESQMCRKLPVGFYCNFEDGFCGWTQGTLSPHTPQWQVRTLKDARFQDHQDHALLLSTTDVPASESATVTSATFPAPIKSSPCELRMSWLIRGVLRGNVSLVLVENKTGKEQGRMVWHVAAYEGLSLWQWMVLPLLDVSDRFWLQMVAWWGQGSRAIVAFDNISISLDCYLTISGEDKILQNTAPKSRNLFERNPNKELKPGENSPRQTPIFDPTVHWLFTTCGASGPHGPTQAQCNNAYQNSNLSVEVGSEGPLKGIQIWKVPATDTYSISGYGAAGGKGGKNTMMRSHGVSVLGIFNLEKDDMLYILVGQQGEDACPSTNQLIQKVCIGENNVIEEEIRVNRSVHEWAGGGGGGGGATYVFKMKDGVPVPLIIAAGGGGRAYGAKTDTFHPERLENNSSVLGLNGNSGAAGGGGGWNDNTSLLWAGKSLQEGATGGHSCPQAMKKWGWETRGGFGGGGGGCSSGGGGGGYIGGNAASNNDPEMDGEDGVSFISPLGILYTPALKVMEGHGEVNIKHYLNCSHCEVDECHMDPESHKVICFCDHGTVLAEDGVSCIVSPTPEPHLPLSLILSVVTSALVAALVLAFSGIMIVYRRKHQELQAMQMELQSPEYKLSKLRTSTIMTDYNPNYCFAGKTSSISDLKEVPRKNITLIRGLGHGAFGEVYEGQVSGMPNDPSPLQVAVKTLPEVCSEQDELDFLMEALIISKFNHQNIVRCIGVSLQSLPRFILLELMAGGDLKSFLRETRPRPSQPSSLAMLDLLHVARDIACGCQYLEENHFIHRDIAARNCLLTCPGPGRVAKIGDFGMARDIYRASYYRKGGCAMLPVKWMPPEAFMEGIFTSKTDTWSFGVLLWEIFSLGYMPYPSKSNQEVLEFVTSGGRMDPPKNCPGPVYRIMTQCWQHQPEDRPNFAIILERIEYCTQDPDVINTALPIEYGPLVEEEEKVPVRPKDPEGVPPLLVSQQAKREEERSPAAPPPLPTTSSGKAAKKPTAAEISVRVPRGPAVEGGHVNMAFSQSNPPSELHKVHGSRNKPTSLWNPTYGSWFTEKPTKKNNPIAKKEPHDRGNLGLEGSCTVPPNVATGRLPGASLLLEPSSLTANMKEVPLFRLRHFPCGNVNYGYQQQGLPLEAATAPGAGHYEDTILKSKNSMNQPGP
Protocol: The method measures the ability of the isolated enzyme to catalyse the transfer of the gamma-phosphate from ATP onto the tyrosine residue of a biotinylated synthetic peptide. The extent of tyrosine phosphorylation was measured using an anti-phosphotyrosine antibody, and quantified by homogenous time-resolved fluorescence (HTRF) assay purchased from CisBio (62TK0PEJ).
Reactions were performed in black 384-well polystyrene low volume plates in a final volume of 5 μl.
The reactions were then started by adding the substrate mix. The reactions were allowed to proceed for 120 minutes at 20° C. The reactions were then terminated by the addition of 5 μl HTRF detection mix to each well. The final concentrations of the detection reagents were: 50 mM HEPES (pH7.0); 0.1% BSA; 0.8 M KF; 20 mM EDTA; 1 mM CHAPS; TK-antibody Europium Cryptate; and 41 nM streptavidin-XL665. Assay plates were left unsealed, stacked and incubated at 20° for 60 minutes. Quantification of activity was achieved by counting in an Envision Counter (PerkinElmer).
Compounds under analysis were dissolved in Me2SO to 1.0 mM and serially diluted 1 to 3 with Me2SO through twelve dilutions. 0.05 μl of each concentration was transferred to the corresponding well of an assay plate. This creates a final compound concentration range from 0.00017 to 10 μM.
The data for dose responses were plotted as % Inhibition calculated with the data reduction formula 100*(1-(U1-C2)/(C1-C2)) versus concentration of compound where U is the unknown value, C1 is the average control value obtained for 1% DMSO, and C2 is the average control value obtained for 0.1 M EDTA. Data were fitted with a curve described by:
[formula] where A is the minimum y, B is the maximum y concentration [M], D is the slope factor, and x is the log10 of the compound.

[1] = biological target: T3, NIH-3T3 cells overexpressing human IGF-1R (Homo sapiens, UniProt P08069); test: IGF-1R cellular autophosphorylation (DELFIA); type: cell-based
T3 construct: expressed in transfected cells; host or cells: NIH-3T3 (mouse fibroblasts)
T3 sequence (P08069 31-1367): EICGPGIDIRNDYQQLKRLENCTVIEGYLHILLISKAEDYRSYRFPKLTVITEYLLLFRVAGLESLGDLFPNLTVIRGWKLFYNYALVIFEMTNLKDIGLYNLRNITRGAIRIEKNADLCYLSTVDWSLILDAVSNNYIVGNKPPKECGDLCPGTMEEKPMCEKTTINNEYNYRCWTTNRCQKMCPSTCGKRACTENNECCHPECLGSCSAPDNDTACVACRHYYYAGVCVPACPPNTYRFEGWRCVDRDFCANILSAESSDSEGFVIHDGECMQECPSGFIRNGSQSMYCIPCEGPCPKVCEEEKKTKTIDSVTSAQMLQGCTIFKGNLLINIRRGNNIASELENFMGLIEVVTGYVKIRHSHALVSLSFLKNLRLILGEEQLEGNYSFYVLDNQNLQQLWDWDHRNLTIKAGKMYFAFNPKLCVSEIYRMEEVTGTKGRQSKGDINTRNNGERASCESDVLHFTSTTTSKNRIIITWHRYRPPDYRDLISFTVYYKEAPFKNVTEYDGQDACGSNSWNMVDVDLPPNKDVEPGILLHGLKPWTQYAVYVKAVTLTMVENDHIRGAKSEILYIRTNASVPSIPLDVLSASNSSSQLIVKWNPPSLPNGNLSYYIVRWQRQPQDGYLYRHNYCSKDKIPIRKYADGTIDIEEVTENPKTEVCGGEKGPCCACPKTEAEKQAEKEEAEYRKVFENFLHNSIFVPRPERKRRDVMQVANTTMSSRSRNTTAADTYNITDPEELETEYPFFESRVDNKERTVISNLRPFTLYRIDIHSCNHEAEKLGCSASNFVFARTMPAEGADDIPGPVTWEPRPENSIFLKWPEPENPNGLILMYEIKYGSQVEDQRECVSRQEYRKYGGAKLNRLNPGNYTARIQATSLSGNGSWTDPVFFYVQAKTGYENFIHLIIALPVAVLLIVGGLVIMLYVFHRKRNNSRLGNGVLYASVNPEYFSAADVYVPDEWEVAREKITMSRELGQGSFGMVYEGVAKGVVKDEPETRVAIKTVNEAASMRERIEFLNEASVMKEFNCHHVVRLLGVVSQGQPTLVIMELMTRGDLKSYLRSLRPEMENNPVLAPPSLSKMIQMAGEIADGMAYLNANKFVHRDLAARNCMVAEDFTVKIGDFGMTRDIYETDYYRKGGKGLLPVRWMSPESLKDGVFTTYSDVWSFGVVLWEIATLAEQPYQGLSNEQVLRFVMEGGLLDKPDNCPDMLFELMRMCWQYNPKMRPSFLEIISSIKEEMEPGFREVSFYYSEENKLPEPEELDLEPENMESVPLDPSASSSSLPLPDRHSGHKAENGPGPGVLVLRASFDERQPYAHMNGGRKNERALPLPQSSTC
Protocol: NIH-3T3 cells overexpressing human IGF-1R or IR were plated in 96-well plates (10,000 cells/well) in culture media containing 10% fetal bovine serum and incubated at 37° C. in a 5% CO2 incubator. Twenty four hours post-plating, cells were treated with different concentrations of test compounds ranging from 30 uM to 1.5 nM. Two hours after compound addition, cells were stimulated with either human IGF-1 (30 ng/ml) or insulin (3 ug/ml) for 15 minutes. Cell lysates are analyzed for phosphorylated receptors using dissociation enhanced lanthanide fluor-immuno assay (DELFIA) with anti-IGF-1R (MAB391, R&D Systems, Minneapolis, Minn.) or anti-IRβ (sc-711, Santa Cruz Biotechnology, Santa Cruz, Calif.) capture antibody and europium-labeled anti-pTyr antibody (Eu-N1 PT66, Perkin Elmer, Waltham, Mass.) for detection. The fluorescence signal for cells treated with compounds was expressed as percent relative to 100% stimulation (IGF-1 or insulin stimulated signal).

Row | SMILES | IC50 (human IGF1R (hIGF1R)) | IC50 (human IR (hIR)) | IC50 (ALK) | IC50 [1]
1 | COc1cc(C2=CCCN(C)C2)ccc1Nc1nc(Nc2ccccc2C(N)=O)c2cc[nH]c2n1 [Example 4, 2-[(2-{[2-(methyloxy)-4-(1-methyl-1,2,5,6-tetrahydro-3-pyridinyl)phenyl]amino}-1H-pyrrolo[2,3-d]pyrimidin-4-yl)amino]benzamide] | 0.251 to 1 nM | 0.251 to 1 nM | 0.251 to 1 nM | < 100 nM
2 | Cc1ccc(NC(=O)CN(C)C)cc1Nc1nc(Nc2cc(F)ccc2C(N)=O)c2cc[nH]c2n1 [Example 85, 2-{[2-({5-[(N,N-dimethylglycyl)amino]-2-methylphenyl}amino)-1H-pyrrolo[2,3-d]pyrimidin-4-yl]amino}-4-fluorobenzamide] | 1.26 to 3.98 nM | 0.251 to 1 nM | 5.01 to 200 nM | > 500 nM
3 | Cc1ccc(NC(=O)CN(C)C)cc1Nc1nc(Nc2ccccc2C(=O)NCCO)c2cc[nH]c2n1 [Example 26, 2-{[2-({5-[(N,N-dimethylglycyl)amino]-2-methylphenyl}amino)-1H-pyrrolo[2,3-d]pyrimidin-4-yl]amino}-N-(2-hydroxyethyl)benzamide] | 5.01 to 200 nM | 1.26 to 3.98 nM | 5.01 to 200 nM | > 500 nM
4 | Cc1ccc(NC(=O)CN(C)C)cc1Nc1nc(Nc2ccccc2C(=O)NO)c2cc[nH]c2n1 [Example 28, 2-{[2-({5-[(N,N-dimethylglycyl)amino]-2-methylphenyl}amino)-1H-pyrrolo[2,3-d]pyrimidin-4-yl]amino}-N-hydroxybenzamide] | 0.251 to 1 nM | 0.251 to 1 nM | 0.251 to 1 nM | > 500 nM
5 | CNC(=O)c1ccccc1Nc1nc(Nc2ccc(N3CCN(C(C)C)CC3)cc2OC)nc2[nH]ccc12 [Example 25, N-methyl-2-[(2-{[4-[4-(1-methylethyl)-1-piperazinyl]-2-(methyloxy)phenyl]amino}-1H-pyrrolo[2,3-d]pyrimidin-4-yl)amino]benzamide] | 1.26 to 3.98 nM | 1.26 to 3.98 nM | 0.251 to 1 nM | 100 to 500 nM
6 | CNC(=O)c1c(F)cccc1Nc1nc(Nc2cc3c(cc2OC)C[C@@H](C)N3C(=O)CN(C)C)nc2[nH]ccc12 [Example 250, 2-[(2-{[(2R)-1-(N,N-dimethylglycyl)-2-methyl-5-(methyloxy)-2,3-dihydro-1H-indol-6-yl]amino}-1H-pyrrolo[2,3-d]pyrimidin-4-yl)amino]-6-fluoro-N-methylbenzamide] | 5.01 to 200 nM | 5.01 to 158 nM | 5.01 to 200 nM | > 500 nM
7 | COc1cc(C2=CCCN(C(C)C)C2)ccc1Nc1nc(Nc2ccccc2C(N)=O)c2cc[nH]c2n1 [Example 6, 2-[(2-{[4-[1-(1-methylethyl)-1,2,5,6-tetrahydro-3-pyridinyl]-2-(methyloxy)phenyl]amino}-1H-pyrrolo[2,3-d]pyrimidin-4-yl)amino]benzamide] | 0.251 to 1 nM | 0.251 to 1 nM | 0.251 to 1 nM | < 100 nM
8 | COc1cc(N2CCN(C(C)C)CC2)ccc1Nc1nc(Nc2cc(F)c(F)cc2C(N)=O)c2cc[nH]c2n1 [Example 102, 4,5-difluoro-2-[(2-{[4-[4-(1-methylethyl)-1-piperazinyl]-2-(methyloxy)phenyl]amino}-1H-pyrrolo[2,3-d]pyrimidin-4-yl)amino]benzamide] | 0.251 to 1 nM | 0.251 to 1 nM | 0.251 to 1 nM | < 100 nM

Now from value to compound:

Row | IC50 (human IGF1R (hIGF1R)) | IC50 (human IR (hIR)) | IC50 (ALK) | IC50 [1] | SMILES
9 | 5.01 to 200 nM | 5.01 to 158 nM | 5.01 to 200 nM | > 500 nM | COc1cc(N2CCN(C(C)C)CC2)ccc1Nc1nc(Nc2cccc(C)c2C(N)=O)c2cc[nH]c2n1 [Example 31, 2-methyl-6-[(2-{[4-[4-(1-methylethyl)-1-piperazinyl]-2-(methyloxy)phenyl]amino}-1H-pyrrolo[2,3-d]pyrimidin-4-yl)amino]benzamide]
10 | 1.26 to 3.98 nM | 0.251 to 1 nM | 0.251 to 1 nM | 100 to 500 nM | CNC(=O)c1ccccc1Nc1nc(Nc2ccc(C3=CCCN(C)C3)cc2OC)nc2[nH]ccc12 [Example 21, N-methyl-2-[(2-{[2-(methyloxy)-4-(1-methyl-1,2,5,6-tetrahydro-3-pyridinyl)phenyl]amino}-1H-pyrrolo[2,3-d]pyrimidin-4-yl)amino]benzamide]
11 | 1.26 to 3.98 nM | 0.251 to 1 nM | 0.251 to 1 nM | 100 to 500 nM | CNC(=O)c1ccccc1Nc1nc(Nc2ccc(C3CCCN(C)C3)cc2OC)nc2[nH]ccc12 (stereo not drawn) [Example 22, N-methyl-2-[(2-{[2-(methyloxy)-4-(1-methyl-3-piperidinyl)phenyl]amino}-1H-pyrrolo[2,3-d]pyrimidin-4-yl)amino]benzamide]
12 | 1.26 to 3.98 nM | 0.251 to 1 nM | 5.01 to 200 nM | > 500 nM | Cc1ccc(NC(=O)CN(C)C)cc1Nc1nc(Nc2cc(F)c(F)cc2C(N)=O)c2cc[nH]c2n1 [Example 106, 2-{[2-({5-[(N,N-dimethylglycyl)amino]-2-methylphenyl}amino)-1H-pyrrolo[2,3-d]pyrimidin-4-yl]amino}-4,5-difluorobenzamide]
